From US4613603A, “Compounds with a nitrogen-containing heterocyclic nucleus, and drugs in which they are present” (Sanofi, priority 1984, dated 1986)
Structures can show the parent of a compound that is named as a salt. Where two headings read alike, the source gives them in different places.

Experiments:
[1] = test system: convulsions induced by an electric shock; experiment: Antagonism towards the convulsions induced by an electric shock; type: in vivo; details: Mus musculus, po, 1 h; mice, administered orally 60 minutes before the electric shock; confidence limits in brackets (p ≤ 0.05); read-out: Median effective dose (ED50) for antagonism towards electric shock
Experimental: (§1) The anticonvulsant effect of the products on mice was evaluated on a model involving convulsions caused by an electric shock and on a model involving convulsions induced by a chemical agent: bicuculline.
The test was a slightly modified version of that of SWINYARD et al. [Journal of Pharmacology and Experimental Therapeutics 106, 319-330 (1952)] and ASAMI et al. [Arzneimittel Forschung 24(10), 1563-1568 (1974)]. The equipment consisted of a Racia shock generator fitted with 2 ocular electrodes delivering a current at 12.5 volts for 0.3 second. The groups consisted of 10 CDI Charles River mice weighing between 20 and 24 g.
The products were administered orally 60 minutes before the electric shock.

bicuculline = experiment: Antagonism towards the convulsions and the mortality caused by bicuculline; type: in vivo, mice; details: Mus musculus, po, 1 h
Experimental: as §1
The groups consisted of 10 CDI Charles River mice weighing between 20 and 22 g. The products were administered orally 60 minutes before the bicuculline (0.8 mg/kg, administered intravenously).

[2] = Determination of the lethal dose in mice after acute administration; details: mouse, in vivo, po, administered orally, read-out: Percent toxicity (percentage of animals which die within 72 hours)
Experimental: The products were administered orally to groups of 5 female CDI Charles River mice weighing between 20 and 24 g. They were solubilized in 0.1N HCl. The toxicity was recorded for 72 hours following the administration of the products.
The results, expressed as the percentage of animals which die within 72 hours following oral administration of the products, are given in the table above.

[3] = test system: mortality following the injection of collagen; experiment: Antithrombotic activity, mortality following the injection of collagen; type: in vivo; details: mice, 200 mg/kg, administered orally
[4] = test system: contortional movements caused by the administration of acetic acid; experiment: Analgesic activity, KOSTER test (acetic acid contortions); type: in vivo; details: mice, 25 mg/kg administered orally 30 minutes before i.p. acetic acid
Experimental: The analgesic activity of the products according to the invention was evaluated using the KOSTER test (Federation Proceeding 18, 41 (1959)).
The products were administered orally to mice 30 minutes before the intraperitoneal injection of 0.25 ml of 0.1N acetic acid dissolved in 10% gum arabic. The contortions between the fifth and tenth minute and between the fifteenth and twentieth minute after administration of the acid were counted for the control animals and the treated animals.

[5] = read-out: Median effective dose (ED50) for antagonism towards bicuculline, Mortality
[6] = read-out: Median effective dose (ED50) for antagonism towards bicuculline, Tonic convulsions

SMILES: OC1CCN(c2ccc(-c3ccc(Cl)cc3Cl)cn2)CC1 [SR 42 903, 5-(2,4-Dichlorophenyl)-2-(4-hydroxypiperidino)pyridine]
- ED50 [1]: 28 mg/kg

SMILES: OC1CCN(c2ncc(-c3ccccc3Cl)nn2)CC1 [SR 42 524, 6-(2-Chlorophenyl)-3-(4-hydroxypiperidino)-1,2,4-triazine]
- ED50 (bicuculline; [5]): 72 mg/kg
- ED50 (bicuculline; [6]): 71 mg/kg
- mortality at 72 h ([2]; 250 mg/kg): 0%
- mortality at 72 h ([2]; 500 mg/kg): 0%
- mortality at 72 h ([2]; 1000 mg/kg): 0%
- ED50 [1]: 24 mg/kg
- Protection from mortality following the injection of collagen [3]: protected mice from mortality following the injection of collagen

SMILES: O=C1CCN(c2ccc(-c3ccccc3Cl)cn2)CC1 [SR 42 696, 5-(2-Chlorophenyl)-2-(4-oxopiperidino)pyridine acid maleate]
- mortality at 72 h ([2]; 250 mg/kg): 0%
- mortality at 72 h ([2]; 500 mg/kg): 0%

SMILES: OC1CCN(c2ncc(-c3ccc(Cl)cc3Cl)cn2)CC1 [SR 42 824, 5-(2,4-dichlorophenyl)-2-(4-hydroxypiperidino)pyrimidine]
- Antagonism towards the contortional movements (percent/control animals) [4]: -80%
- ED50 (bicuculline; [5]): 8 mg/kg
- ED50 (bicuculline; [6]): 9.4 mg/kg
- mortality at 72 h ([2]; 250 mg/kg): 0%
- mortality at 72 h ([2]; 500 mg/kg): 0%
- ED50 [1]: 20 mg/kg

SMILES: OC1CCN(c2ncc(-c3ccc(Cl)cc3)cn2)CC1 [SR 42 921, 5-(4-chlorophenyl)-2-(4-hydroxypiperidino)pyrimidine]
- mortality at 72 h ([2]; 250 mg/kg): 0%
- mortality at 72 h ([2]; 500 mg/kg): 0%

SMILES: O=C1CCN(c2ncc(-c3ccccc3Cl)nn2)CC1 [SR 42 642, 6-(2-Chlorophenyl)-3-(4-oxopiperidino)-1,2,4-triazine]
- mortality at 72 h ([2]; 250 mg/kg): 0%
- mortality at 72 h ([2]; 500 mg/kg): 0%
- ED50 [1]: 40 mg/kg

SMILES: OC1CCN(c2ncc(-c3ccc(Cl)cc3Cl)nn2)CC1 [SR 42 825, 6-(2,4-Dichlorophenyl)-3-(4-hydroxypiperidino)-1,2,4-triazine]
- Antagonism towards the contortional movements (percent/control animals) [4]: -57%
- ED50 (bicuculline; [5]): 3.3 mg/kg
- ED50 (bicuculline; [6]): 3.1 mg/kg
- mortality at 72 h ([2]; 250 mg/kg): 20%
- mortality at 72 h ([2]; 500 mg/kg): 20%
- mortality at 72 h ([2]; 1000 mg/kg): 80%
- ED50 [1]: 16 mg/kg

SMILES: CN(C)C(=O)OC1CCN(c2ncc(-c3ccc(Cl)cc3Cl)cn2)CC1 [SR 43 539, 2-(4-Dimethylcarbamoyloxypiperidino)-5-(2,4-dichlorophenyl)pyrimidine]
- ED50 (bicuculline; [5]): 0.7 mg/kg
- ED50 (bicuculline; [6]): 1.1 mg/kg
- ED50 [1]: 2.5 mg/kg

SMILES: OC1CCN(c2ncc(-c3cccc4ccccc34)cn2)CC1 [SR 43 139, 5-(naphthyl-1)-2-(4-hydroxypiperidino)pyrimidine]
- ED50 (bicuculline; [5]): 44 mg/kg
- ED50 (bicuculline; [6]): 46 mg/kg
- mortality at 72 h ([2]; 250 mg/kg): 0%
- mortality at 72 h ([2]; 500 mg/kg): 0%
- mortality at 72 h ([2]; 1000 mg/kg): 0%
- ED50 [1]: 43 mg/kg

SMILES: OC1CCN(c2ncc(-c3ccccc3Cl)cn2)CC1 [SR 42 505, 5-(2-Chlorophenyl)-2-(4-hydroxypiperidino)pyrimidine]
- Antagonism towards the contortional movements (percent/control animals) [4]: -36%
- ED50 (bicuculline; [5]): 54 mg/kg
- ED50 (bicuculline; [6]): 52 mg/kg
- mortality at 72 h ([2]; 250 mg/kg): 0%
- mortality at 72 h ([2]; 500 mg/kg): 0%
- mortality at 72 h ([2]; 1000 mg/kg): 80%
- ED50 [1]: 42 mg/kg

SMILES: CC(=O)OC1CCN(c2ncc(-c3ccc(Cl)cc3Cl)cn2)CC1 [SR 43 651, 2-(4-Acetoxypiperidino)-5-(2,4-dichlorophenyl)pyrimidine]
- ED50 (bicuculline; [5]): 15.5 mg/kg
- ED50 (bicuculline; [6]): 17.2 mg/kg
- ED50 [1]: 43 mg/kg

SMILES: OC1CCN(c2ccc(-c3ccccc3Cl)cn2)CC1 [SR 42 482, 5-(2-Chlorophenyl)-2-(4-hydroxypiperidino)-pyridine acid maleate]
- Antagonism towards the contortional movements (percent/control animals) [4]: -50%
- mortality at 72 h ([2]; 250 mg/kg): 0%
- mortality at 72 h ([2]; 500 mg/kg): 0%
- mortality at 72 h ([2]; 1000 mg/kg): 0%

SMILES: CN(C)C(=O)OC1CCN(c2ncc(-c3ccccc3Cl)cn2)CC1 [SR 43 537, 2-(4-dimethylcarbamoyloxypiperidino)-5-(2-chlorophenyl)pyrimidine]
- ED50 (bicuculline; [5]): 3 mg/kg
- ED50 (bicuculline; [6]): 3.3 mg/kg
- ED50 [1]: 2.5 mg/kg

SMILES: O=C(OC1CCN(c2ncc(-c3ccccc3Cl)cn2)CC1)N1CCC(O)CC1 [SR 43 516, 2-[4-(4-hydroxypiperidinocarbonyloxy)piperidino]-5-(2-chlorophenyl)pyrimidine]
- mortality at 72 h ([2]; 250 mg/kg): 0%
- mortality at 72 h ([2]; 500 mg/kg): 0%
- mortality at 72 h ([2]; 1000 mg/kg): 0%
- ED50 [1]: 91 mg/kg

SMILES: COc1ccc(-c2cnc(N3CCC(O)CC3)nc2)cc1 [SR 43 159, 5-(4-methoxyphenyl)-2-(4-hydroxypiperidino)pyrimidine]
- ED50 (bicuculline; [5]): 60 mg/kg
- ED50 (bicuculline; [6]): 70 mg/kg
- mortality at 72 h ([2]; 250 mg/kg): 0%
- mortality at 72 h ([2]; 500 mg/kg): 0%
- mortality at 72 h ([2]; 1000 mg/kg): 0%
- ED50 [1]: 83 mg/kg

SMILES: CNC(=O)OC1CCN(c2ncc(-c3ccccc3Cl)cn2)CC1 [SR 43 543, 2-(4-Methylcarbamoyloxypiperidino)-5-(2-chlorophenyl)pyrimidine]
- ED50 (bicuculline; [5]): 3.9 mg/kg
- ED50 (bicuculline; [6]): 4.3 mg/kg
- mortality at 72 h ([2]; 250 mg/kg): 0%
- mortality at 72 h ([2]; 500 mg/kg): 0%
- mortality at 72 h ([2]; 1000 mg/kg): 20%
- ED50 [1]: 19 mg/kg

SMILES: OC1CCN(c2cnc(-c3cccc(Cl)c3)nn2)CC1 [SR 42 904, 3-(3-Chlorophenyl)-6-(4-hydroxypiperidino)-1,2,4-triazine]
- mortality at 72 h ([2]; 250 mg/kg): 0%
- mortality at 72 h ([2]; 500 mg/kg): 0%
- ED50 [1]: 59 mg/kg

SMILES: O=C1CCN(c2ncc(-c3ccc(Cl)cc3Cl)nn2)CC1 [SR 42 826, 6-(2,4-Dichlorophenyl)-3-(4-oxopiperidino)-1,2,4-triazine]
- Antagonism towards the contortional movements (percent/control animals) [4]: -42%
- ED50 (bicuculline; [5]): 3.4 mg/kg
- ED50 (bicuculline; [6]): 3.2 mg/kg
- mortality at 72 h ([2]; 250 mg/kg): 0%
- mortality at 72 h ([2]; 500 mg/kg): 20%
- ED50 [1]: 26 mg/kg

SMILES: OC1CCN(c2ncc(-c3cccc(Cl)c3)cn2)CC1 [SR 42 922, 5-(3-chlorophenyl)-2-(4-hydroxypiperidino)pyrimidine]
- mortality at 72 h ([2]; 250 mg/kg): 0%
- mortality at 72 h ([2]; 500 mg/kg): 0%
- mortality at 72 h ([2]; 1000 mg/kg): 0%

SMILES: OC1CCN(c2cnc(-c3ccc(Cl)cc3)nn2)CC1 [SR 42 833, 3-(4-Chlorophenyl)-6-(4-hydroxypiperidino)-1,2,4-triazine]
- Antagonism towards the contortional movements (percent/control animals) [4]: -31%
- mortality at 72 h ([2]; 250 mg/kg): 0%
- mortality at 72 h ([2]; 500 mg/kg): 0%
